Patent US10231985B2, “Compounds and compositions comprising such compounds for the prevention or treatment of dyslipidaemias” (CENTRE NATIONAL DE LA RECHERCHE SCIENTIFIQUE, priority 2013, dated 2019)

System: BRIN-BD11 pancreatic β-cells
Assay: Cell viability of palmitic acid-lipointoxicated pancreatic β-cells (propidium iodide, flow cytometry)
Type: cell-based, rat
Details: BRIN-BD11, 200 μM palmitic acid
Procedure: Pancreatic β-cells, BRIN-BD11, were grown under control conditions or in the presence of an exogenous source of saturated fatty acid (200 μM palmitic acid), as described by Dhayal & Morgan (2011), in order to generate lipointoxication conditions, with or without the addition of OAG. A) The proportion of dead cells was estimated in the absence (control) or presence of palmitic acid, for increasing concentrations of OAG. B) eIF2α phosphorylation levels were also analyzed under the various conditions by Western blot, in the presence or absence (Ø) of OAG, and were normalized to total eIF2α.
The lipid species are prepared in ethanol before being complexed with bovine serum albumin (BSA, first depleted of fatty acids) by incubation for 1 hour at 37° C. The palmitic acid stock solution is obtained by adding one volume of ethanol before the whole is heated to 70° C. for homogenization. OAG and LPA solutions are prepared in 100% ethanol at room temperature. For the incubations of mammalian cells, the final BSA and ethanol concentrations in the culture medium are kept at 1% and 0.5% (w/v), respectively.
The rat pancreatic β-cell line (BRIN-BD11) is grown in complete RPMI-1640 medium, containing 11 mM glucose and supplemented with 10% (v/v) fetal calf serum (FCS), 2 mM L-glutamine, 100 U/ml penicillin and 100 μg/ml streptomycin. For each experiment, the cells are first seeded at a density of 0.5×10^5 cells/ml in 6-well plates for 24 hours. Thereafter, the complete medium is replaced by an equivalent lacking FCS but containing the lipid reagents of interest, at the desired concentrations, complexed with BSA. Under the control conditions, identical amounts of BSA and ethanol are then used. […] After incubation on ice for 10 minutes, the samples thus obtained are analyzed by flow cytometry. A Beckman Coulter EPICS XL MCL is used for the quantification, an FL3 channel is used to detect the emissions of the PI intercalated in the DNA, and the analysis is carried out using the EXPO32 ADC software (Applied Cytometry Systems, V 1.1 build 207).

CCCCCCCC/C=C\CCCCCCCC(=O)OC[C@H](CO)OC(C)=O [OAG, 1-oleoyl-2-acetyl-sn-glycerol]
Apoptosis / proportion of dead cells of pancreatic β-cells: prevents apoptosis
